Experimental data taken from patent US9410142B2, “Dendrimer-based excipients for the attenuation of protein aggregation” (Massachusetts Institute of Technology, priority 2010, dated 2016).
“Also recorded” adds a separate entry of the source. Each block holds one compound with its values, some of them ahead of it.

Legend:
[1] = target: T1, α-chymotrypsinogen A (aCgn) (Bos taurus, UniProt P00766); assay: aCgn aggregation (monomer loss) at 52.5° C. by size exclusion HPLC; type: physicochemical, Bovine; details: for rate of aCgn monomer loss compared to the reference solution: additive 0.05 M; for aCgn t95/t95, 0 (Shelf-Life Extension Factor): isotonic concentrations, 20 mM sodium citrate pH 5, 52.5° C., time for 5% loss of protein vs no additive; for aCgn aggregation suppression compared with other salt forms / generations (FIG. 5, 6, 8): 10 mg/mL aCgn, pH 5, 52.5° C.
Protocol: The aggregation of aCgn was accelerated by incubating samples at an elevated temperature. […] In addition to all aggregation experiments being conducted at that temperature, all samples contained 10 mg/mL aCgn, held at pH 5.0 using a 20 mM sodium citrate buffer. 50 μL aliquots of each protein-cosolute mixture were placed in 0.2 mL polymerase chain reaction (PCR) tubes and then incubated in a Bio-Rad Mycycler thermal cycler with a timer initiated when the thermal cycler reached the desired temperature. Each series contained 12 samples and up to 8 different mixtures were tested at the same time during any given experiment. Samples were removed periodically and immediately placed in an ice bath to quench the aggregation reaction. The length of each experiment was planned so that the extent of reaction was such that at least 20% of the protein aggregated, making changes in the rate of aggregation pronounced. After at least five minutes in the ice bath, the samples were briefly spun in a minicentrifuge to remove precipitated aggregates and then transferred to autosampler vials.
All aCgn samples were first treated with phenylmethylsulfonyl fluoride to inhibit residual amounts of active enzyme and, after dialysis, solutions were frozen, rather than lyophilized, in 0.3 mL aliquots and used within 6 months. […] Solutions for the aggregation study were prepared by first preparing a solution of the cosolute of interest in a 20 mM sodium citrate pH 5 buffer at a concentration double that of interest (adjusting the pH to 5 if needed with the appropriate acid or an 8 M sodium hydroxide solution), then mixing 0.3 mL of this solution with 0.3 mL of a thawed aCgn solution. This solution was then divided into twelve aliquots, each 50 μL in volume, and incubated at an elevated temperature, as described below.
15 μL, of each aCgn sample were injected into an Agilent 1200 series HPLC, equipped with a Zorbax GF-250 (4.6×250 mm, 4 micron) size exclusion column and a UV-Vis detector, during a sequence. The HPLC mobile phase contained 25 mM citric acid monohydrate, 25 mM sodium acetate, and 200 mM sodium chloride with the pH adjusted to 4.0 using sodium hydroxide. The flow rate was set at 1 mL/min and samples were monitored at 280 nm.
Peak area at each time point was compared to the peak area for an unstressed sample to create a monomer loss profile normalized with respect to the initial concentration. Each profile was compared to a profile for a sample containing no cosolute to determine the change in aggregation rate upon addition of the cosolute. For a control, each aggregation experimental setup had one protein solution that contained no cosolute to verify that the baseline aggregation rate remained constant amongst all experiments.
The most notable consequence of perturbing a protein's environment is the enhancement or inhibition of protein aggregation. Deyoung L R et al. (1993) Accounts Chem Res 26:614-620; Fink A L (1998) Fold Des 3:R9-R23. The guanidinium-modified dendrimers were added to model protein solutions and incubated at an elevated temperature to determine how they influence the rate of this degradation pathway. […] At low dendrimer concentrations (0.05 M), the rate of monomer loss in the presence of the surface-modified dendrimer is slower than when compared to the reference solution. However, this aggregation rate reduction is insignificant when compared to the rate reduction induced by a high concentration of other commonly used additives such as arginine hydrochloride (ArgHCl), which is also depicted in the figure. Furthermore, as the concentration of the surface-modified dendrimer is increased, the aggregation rate reduction decreases until ultimately, the rate of aggregation is increased. At a concentration of 0.2 M, the surface-modified dendrimer induced rapid aggregation, causing a 50% loss in about 10 minutes as opposed to 30 minutes for the solution containing no cosolute. […]

[2] = target: Concanavalin A (Con A) (Canavalia ensiformis, UniProt P02866); assay: Con A aggregation / shelf-life at pH 6.5 and 37° C.; type: physicochemical; details: for Con A t95/t95, 0 (Shelf-Life Extension Factor): isotonic concentrations, 40 mM sodium phosphate pH 6.5, 37° C., time for 5% loss of protein vs no additive
Protocol: This Shelf-Life Extension Factor was determined by comparing the length of time, t95, for a 5% loss of protein when in the presence of the compounds to the original length of time, t95,0 for a 5% loss. For comparison purposes, isotonic concentrations (as determined by VPO) of the compounds were used and Shelf-Life Extension Factor values for commonly used excipients at isotonic concentrations are shown as well. Shelf-life values of aCgn were determined at 52.5° C. and at 37° C. for Con A.

[3] = target: T1, α-chymotrypsinogen A (aCgn); assay: DSC denaturation midpoint temperature (Tm) of aCgn; type: physicochemical, Bovine
Protocol: The thermodynamic stability of aCgn in the presence of the arginine salts was determined by DSC (Microcal VP-Differential Scanning calorimeter located in the Biophysical Instrumentation Facility (BIF) at MIT). Each reading began with a minimum of three buffer-buffer up and down scans (in this case, the buffer also contains the cosolute of interest) to establish a reproducible thermal history followed by a single protein-buffer up scan. aCgn was analyzed at a concentration of 1 mg/mL in a 20 mM sodium citrate pH 5 buffer containing the cosolute of interest and a scan rate of 90° C./hour. The data was analyzed in the MicroCal Origin® plotting software. In the analysis, the last buffer-buffer reference scan was first subtracted from the data and then the data was normalized with respect to the protein concentration, cell volume, and scan rate. The baseline (which was progressed through the peak) was then subtracted from the plot and the denaturation midpoint temperature, Tm, was taken as the temperature at the peak maximum of the unfolding event. For each arginine salt, three concentrations (including zero concentration) were tested and Tm values with respect to cosolute concentration were fitted to a linear trend.
The thermostability of aCgn at 1 mg/mL in the presence of the modified dendrimers was assessed by determining the denaturation midpoint temperature (Tm) from DSC scans, which is a qualitative indicator of how the conformational stability of the protein is perturbed. Ghosh K et al. (2009) Proc Natl Acad Sci USA 106:10649-10654.

[4] = target: T1, α-chymotrypsinogen A (aCgn); assay: Preferential interaction with aCgn by vapor pressure osmometry (VPO); type: physicochemical, Bovine; details: for Γexp preferential interaction coefficient of aCgn: 0.17-[…] dendrimer salt, VPO
Protocol: Osmolality measurements were carried out according to the previously described procedure. For improved accuracy, all samples were prepared gravimetrically using a Mettler Toledo balance with a precision of 0.1 mg. Partial molar volume values of the
Stock solutions of both BSA and lysozyme and stock solutions of the cosolutes were each prepared in a 40 mM sodium phosphate buffer, pH 6.0 (aCgn measurements were conducted in 20 mM sodium citrate buffer, pH 3.5 or pH 5.0). Stock solutions of the cosolutes were used so that a series of samples could be easily produced with varying solute concentrations by dilution with water and buffer. The protein stock solutions were further purified by placing the solutions under dialysis for 48 hours at room temperature against two changes of buffer (1 L each). […] To determine the concentration, samples of each stock solution were diluted gravimetrically with water to a final optical density of about 1.0 and the concentration determined spectrophotometrically with a PerkinElmer Lambda 35 UV/Vis spectrometer. It should be noted that the protein stock solutions were stored at 4° C. and used within one week of their preparation.
[formula] A Wescor Vapro® vapor pressure osmometer (model 5520) was used for all osmometry measurements. The instrument was calibrated using 0.1, 0.29, and 1 mol/kg osmolality standards provided by Wescor. Due to slight drifts in the calibration points, the instrument was recalibrated after every four measurements and the thermocouple was cleaned daily using concentrated ammonium hydroxide followed by a rinse with HPLC grade water. […] The data sets for each cosolute included at least 16 individually made solutions (both for the sets with and without the protein). Each sample contained approximately 80 μL of solution (40 μL of diluted cosolute stock solution and 40 μL of the protein stock solution). A minimum of three measurements on each solution were made. If the standard deviation for a particular solution was greater than 2 mmol/kg, more measurements were taken or another sample was prepared. For a given solute, data representing the dependence of osmolality on solute molality were fitted by a quadratic equation, with all fitting parameters floated. Data were weighted by the standard deviation of the individual osmolality measurements for the same solution using the nonlinear fitting program Igor Pro.
To gain further insight into how the modified dendrimer salts inhibit protein-protein interactions, preferential interaction coefficient (Γ23) values at various concentrations were determined, both experimentally via vapor pressure osmometry (VPO) measurements and computationally via MD simulations. The experimental results for the interaction between modified generation 0 PAMAM dendrimers and aCgn are expressed in Table 2, which summarizes the polynomial fit and uncertainty of the experimental data. Theoretical preferential interaction coefficient values were computed from the MD simulation using the procedure outlined in our previous work. Baynes B M and Trout B L (2003) J Phys Chem B 107:14058-14067; Shukla D et al. (2009) J Phys Chem B 113:12546-12554.

[5] = Partial molar volume from density measurements of dendrimer only solutions; type: physicochemical

Compound: Generation 1 PAMAM Dendrimer, Ethylene Diamine Core, with Guanidinium Chloride Surface Groups [G1-Gdn]
- rate of aCgn monomer loss compared to the reference solution [1]: large increase in the rate of aggregation

- aCgn t95/t95, 0 (Shelf-Life Extension Factor) [1]: 1.9
Compound: OC[C@H]1O[C@@](CO)(O[C@H]2O[C@H](CO)[C@@H](O)[C@H](O)[C@H]2O)[C@@H](O)[C@@H]1O [Sucrose, reference compound]

Compound: OCC(O)CO [Glycerol, reference compound]
- Con A t95/t95, 0 (Shelf-Life Extension Factor) [2]: 1.3

Compound: N=C(N)NCCNC(=O)CCN(CCNC(=O)CCN(CCC(=O)NCCN(CCC(=O)NCCNC(=N)N)CCC(=O)NCCNC(=N)N)CCN(CCC(=O)NCCN(CCC(=O)NCCNC(=N)N)CCC(=O)NCCNC(=N)N)CCC(=O)NCCN(CCC(=O)NCCNC(=N)N)CCC(=O)NCCNC(=N)N)CCC(=O)NCCNC(=N)N.O=S(=O)(O)O.O=S(=O)(O)O.O=S(=O)(O)O.O=S(=O)(O)O.O=S(=O)(O)O.O=S(=O)(O)O.O=S(=O)(O)O [Dend. 1 Gdm(SO4)1/2]
- Con A t95/t95, 0 (Shelf-Life Extension Factor) [2]: 16.7
- Con A t95/t95, 0 (Shelf-Life Extension Factor) ([2]; listed as generation 1 dendrimer with a guanidinium sulfate surface): greater than 15
- Con A t95/t95, 0 (Shelf-Life Extension Factor) ([2]; listed as sulfate form of the generation 1 modified dendrimer): 16.7
- Con A shelf-life, times longer than with glycerol or sucrose ([2]; pH 6.5, 37° C.): over 10 times

Compound: Cl.Cl.Cl.Cl.Cl.Cl.N=C(N)NCCNC(=O)CCN(CCC(=O)NCCNC(=N)N)CCN(CCC(=O)NCCNC(=N)N)CCC(=O)NCCNC(=N)N [GdmCl, Generation 0 Polyamidoamine (PAMAM) dendrimer with a surface modified to guanidinium]
- rate of aCgn monomer loss compared to the reference solution [1]: slower
- time for 50% loss of aCgn monomer ([1]; additive 0.2 M, no cosolute 30 minutes): about 10 minutes
- rate of lowering the melting temperature of aCgn relative to ordinary GdmCl [3]: double
- dTm/d[3] aCgn denaturation midpoint temperature increment ([3]; 1 mg/mL aCgn, 20 mM sodium citrate pH 5, maximum dendrimer 0.2 mol/L): −13.9 K * L/mol
- rate of decrease of Tm of aCgn ([3]; concentrations less than 0.2 mol/L): 13.9 ° C.*M^−1
- Γ23/[3] preferential interaction with aCgn ([4]; 50 mg/mL aCgn, 20 mM sodium citrate pH 5, maximum dendrimer 0.2 mol/L): −8.1 ± 3.6 mol/mol
- Γexp preferential interaction coefficient of aCgn [4]: −1.5
- Γexp preferential interaction coefficient of aCgn ([4]; listed as chloride salt): −1.5±0.7
- V0 partial molar volume at infinite dilution [5]: 0.5217 L/mol

Compound: CC(=O)O [acetate]
- aCgn aggregation suppression compared with other salt forms / generations (FIG. 5, 6, 8) [1]: moderately improves the performance; also recorded: only improved slightly

Compound: N=C(N)NCCNC(=O)CCN(CCNC(=O)CCN(CCC(=O)NCCN(CCC(=O)NCCNC(=N)N)CCC(=O)NCCNC(=N)N)CCN(CCC(=O)NCCN(CCC(=O)NCCNC(=N)N)CCC(=O)NCCNC(=N)N)CCC(=O)NCCN(CCC(=O)NCCNC(=N)N)CCC(=O)NCCNC(=N)N)CCC(=O)NCCNC(=N)N.O=P(O)(O)O.O=P(O)(O)O.O=P(O)(O)O.O=P(O)(O)O.O=P(O)(O)O.O=P(O)(O)O.O=P(O)(O)O.O=P(O)(O)O.O=P(O)(O)O.O=P(O)(O)O.O=P(O)(O)O.O=P(O)(O)O.O=P(O)(O)O.O=P(O)(O)O [Dend. 1 Gdm(H2PO4)]
- aCgn aggregation suppression compared with other salt forms / generations (FIG. 5, 6, 8) [1]: lower for all concentrations
- aCgn t95/t95, 0 (Shelf-Life Extension Factor) [1]: 16.3

Compound: Cl.N=C(N)NCCC[C@H](N)C(=O)O [ArgHCl, arginine hydrochloride, reference compound]
- aCgn t95/t95, 0 (Shelf-Life Extension Factor) [1]: 3.3
- Con A t95/t95, 0 (Shelf-Life Extension Factor) [2]: 0.4

Compound: O=S(=O)([O-])[O-].[Na+].[Na+] [Na2SO4, sodium sulfate, reference compound]
- aCgn t95/t95, 0 (Shelf-Life Extension Factor) [1]: 3.1
